According to US7786129B2, “Piperazine derivatives of dialkyl oxindoles” (Egis Gyogyszergyar Nyrt, priority 2004, dated 2010):
Counter-ions that a name gives are not always drawn. Marks after values point to notes of the source that are not given here.

Assays:
Male Wistar rats = assay: Vogel's drinking conflict test; format: in vivo; conditions: ip, 0.5 h, rat, i.p. 30 min prior to test, increase in tolerated shocks, read-out: MED
Experimental: (§1) The anxiolytic effect of the compounds according to the invention was investigated on rats according to Vogel's drinking conflict test and elevated plus-maze test (S. Pelow, P. Chopin, S. E. File, J. Briley: Neurosci. Methods 14, p. 149 (1985)).
Male Wistar rats weighing 160-180 g were used for the experiment. The animals were deprived of drinking water for 48 hours and fasted for 24 hours prior to test. The test compounds or vehicle were administered intraperitoneally, 30 min prior to test. […] Following every 20 licks electric shocks (0.7 mA) were applied through the drinking spout during the 5 min test period. The number of punished licks were recorded. The effect of the test compounds was expressed as % increase in numbers of tolerated shocks. Minimal effective doses (MED) were determined for each compound.

[1] = tested on: dopamine release in the internal ear of guinea pig; assay: Dopamine release in the internal ear (cochlear preparations, oxygen and glucose deprivation); conditions: guinea pig cochlear preparation, second stimulation after oxygen and glucose deprivation, FIG. 1
Experimental: The study of the effect on the hearing impairment and tinnitus were performed in guinea pigs weighing 145-375 g (Toxicoop, Hungary) according to the method of Gáboiján et al. (Gáboiján, A., Lendvai, B, Vizi, E. S.: Neuroscience 90, p. 131 (1999)). The dopamine release in the internal ear, as a correlate of hearing impairment, was measured in samples from cochlear preparations (lateral olivocochlear efferents) with high-pressure liquid chromatography (HPLC). The samples were collected in every 3 minutes during 60 minutes (20 fractions). Electric field stimulation was generally applied during the 3rd and 13th fraction (S1, S2, 2 Hz, 360 shocks, 60 V; Grass Medical Instruments). In the respective experiments ischemia (oxygen and glucose deprivation, OGD) was mimicked by the perfusion of a buffer saturated with 100% N2 and containing sacharose instead of glucose. Results are expressed as a percent of dopamine release per fraction. Statistical analysis was performed by analysis of variance (ANOVA) followed by Tukey test.
From the thus-obtained results the effect of the compound of Example 76 on the dopamine release in the internal ear of guinea pig is shown (FIG. 1). The initial stimulation (SI) evoked considerable dopamine release. […] This effect can be interpreted as an inhibition of hearing impairment.

Male Mongolian gerbils = assay: Neuroprotective effect in global ischemia test (bilateral carotid occlusion); format: in vivo, Mongolian gerbil; conditions: gerbil; for Effect (%): change of CA1 cell loss score vs. control, 30 mg/kg i.p.; for CA1 cell loss (score): 30 mg/kg i.p. 45 min after surgery, scored 4 days after surgery on 6-point scale
Experimental: Male Mongolian gerbils weighing 60-90 g were used as test animals. The test compounds were administered intraperitoneally at a dose of 30 mg/kg 45 min after surgery. Test substances were suspended in 0.4% methylcellulose solution. In diethylether narcosis, the right and left common carotid arteries were exposed through an anterior midline cervical incision and isolated from the vagus nerves and the surrounding tissues. Full arrest of carotid blood flow was achieved by tightening an aneurysm clip for 3 min. During surgery the body temperature of the animals was kept at the individual preoperative level (37.5±0.5° C.) with the help of a heating pad and a heating lamp.
4 days after the surgery the animals were anaesthetized with 60 mg/kg i.p nembutal (10 ml/kg) and perfused through the heart first with saline then with a fixative solution containing 0.1% glutaraldehyde, 4% paraformaldehyde and 0.2% picric acid in 0.1 M phosphate buffer (pH 7.4) for 30 min. The brain was removed from the skull and post fixed for at least 1 week at 4° C. in the same fixative solution.
Alternate coronal sections of 60 μm thickness were cut from different levels of the dorsal hippocampus by a microtome. The sections were repeatedly washed in 0.1 M phosphate buffer (pH 7.4) and stained by silver impregnation. The sections were stored twice in a preparatory solution (2% sodium hydroxide and 0.875% ammonium hydroxide solution) for 5 minutes, impregnated for 10 minutes in 0.875% ammonium hydroxide and 0.5% silver nitrate solution) and placed into a washing solution (0.5% sodium carbonate and 0.01% ammonium nitrate dissolved in a 29.1% aqueous ethanol solution) twice for 2 minutes and once for one minute. The slices were then developed in 9.9% ethanol solution containing 1.5% formaldehyde and 0.01% ammonium nitrate and fixed three times for 3 minutes in a 0.5% acetic acid solution. The stained slices were placed in 0.1M phosphate buffer (pH 7.4) and chrome gelatine, applied on plates, dehydrated and treated with xylol. The cover plates were fixed with DPX glue (Fluka).
The sections were examined under light microscopy and the overall neuronal damage in the hippocampal CA1 subfield in both hippocampi was scored on a 6-point scale: (O) undamaged, (1)—0-10%; (2)—10-30%; (3)—30-50%; (4)—50-70%; (5)—70-90%; (6)—90-100% cell loss. Group differences between drug-treated and vehicle-treated groups were statistically analysed by Mann-Whitney U-test.

5-HT1A receptor = target: T1, 5-HT1A receptor (Rattus norvegicus, UniProt P19327); assay: 5-HT1A receptor binding; conditions: rat frontal cortex preparation, ligand tritiated 8-OH-DPAT
T1 construct: from tissue; host or cells: rat frontal cortex membrane preparation
T1 sequence (P19327 1-422): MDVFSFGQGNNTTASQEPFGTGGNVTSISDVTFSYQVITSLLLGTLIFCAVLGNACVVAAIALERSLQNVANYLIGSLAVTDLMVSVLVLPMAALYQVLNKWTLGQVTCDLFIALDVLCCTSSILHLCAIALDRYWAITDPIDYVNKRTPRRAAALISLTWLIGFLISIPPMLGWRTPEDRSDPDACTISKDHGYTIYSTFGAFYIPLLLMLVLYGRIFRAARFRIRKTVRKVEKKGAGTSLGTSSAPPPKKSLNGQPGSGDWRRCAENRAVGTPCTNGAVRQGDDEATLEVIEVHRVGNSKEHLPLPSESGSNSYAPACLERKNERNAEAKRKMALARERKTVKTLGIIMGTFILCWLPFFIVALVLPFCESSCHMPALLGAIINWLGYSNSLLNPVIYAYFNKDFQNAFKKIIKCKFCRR
Experimental: (§2) Receptor bindings—with the exception of the 5-HT2C receptor binding—were determined by using cerebral region preparations of male Wistar rats weighing 120-200 g. For the preparation of 5-HT1A receptor binding frontal cortex preparations were used. The al receptor binding studies were performed from isolated frontal cortex pre-parations. For the 5-HT2C receptor binding experiments choroid plexus of pigs was used. The protein contents of membrane preparations were determined by the method of Lowry (1951).
5-HT1A receptor binding was measured according to the method of Peroutka (Peroutka, S. J.: J. Neurochem. 47, p. 529 (1986)). The ligand was tritiated 8-hydroxy-N,N-dipropyl-2-aminotetraline (8-OH-DPAT). For the determination of non-specific binding 10 μM serotonin was applied. Incubation […] volume was 250 μl. Incubation was carried out at a temperature of 25 C for 30 minutes. The reaction was terminated by the addition of 9 ml of ice-cold 50 mM TRIS-HCl (pH 7.7) buffer and quick vacuum filtration using Whatman GFIB fibreglass filtering paper. Radioactivity of the filter boards was measured by liquid scintillation spectrometry.
(§3) The IC50 value is the value of concentration where the difference between total and non-specific binding is 50% in the presence of a determined concentration of a specific ligand.

5-HT2C receptor = target: T2, 5-HT2C receptor (Sus scrofa, UniProt K7GSR7); assay: 5-HT2C receptor binding; design: species or system pig; conditions: choroid plexus of pigs, ligand 3H-mesulergin 1.0 nM
T2 construct: from tissue; host or cells: pig choroid plexus membrane preparation
T2 sequence (K7GSR7 1-457): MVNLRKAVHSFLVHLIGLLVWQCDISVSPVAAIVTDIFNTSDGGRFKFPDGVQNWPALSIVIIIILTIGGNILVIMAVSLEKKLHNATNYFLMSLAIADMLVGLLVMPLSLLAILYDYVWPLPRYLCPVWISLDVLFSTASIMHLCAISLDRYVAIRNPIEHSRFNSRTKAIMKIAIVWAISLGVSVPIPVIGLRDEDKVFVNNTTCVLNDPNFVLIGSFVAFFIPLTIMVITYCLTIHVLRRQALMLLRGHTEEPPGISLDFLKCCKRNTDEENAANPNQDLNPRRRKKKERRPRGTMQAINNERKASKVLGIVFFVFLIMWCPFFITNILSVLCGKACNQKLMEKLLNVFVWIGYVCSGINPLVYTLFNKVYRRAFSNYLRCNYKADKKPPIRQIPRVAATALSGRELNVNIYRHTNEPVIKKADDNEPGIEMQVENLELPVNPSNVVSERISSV
Experimental: as §2
(§4) In the course of 5-HT2C and α1 receptor binding experiments the ligands were ^3H-mesulergin (1.0 nM) and ^3H-prazosine (0.3 nM), respectively. The non-specifically binding ligands were mianserine (1 μM and prazosine (1 μM), respectively.
as §3

α1 receptor = α1 receptor binding experiment; conditions: rat isolated frontal cortex preparation, ligand 3H-prazosine 0.3 nM
Experimental: as §2, §4, §3

Male Sprague-Dawley rats = assay: Elevated plus-maze test in rats; format: in vivo; conditions: minimal effective dose, rat, p.o., 60 min after treatment, time in or entries into open arms
Text: as §1
A wooden cross elevated to 50 cm above the floor, 15 cm wide with 100 cm long arms was used for the experiments. The sides and ends of two opposite arms of the cross were equipped with 40 cm high walls, however, the arms were open to the 15×15 cm central area (closed arms). The two other opposite arms were not encircled by walls (open arms).
Male Sprague-Dawley rats weighing 200-220 g were used for the experiments. The animals were placed in the central area of the equipment 60 min after treatment and the following four parameters have been observed for the 5 min test time: • time spent in the open arms (sec), • time spent in the closed arms (see), • number of entries into the open arms, • number of entries into the closed arms.
The effect was expressed as percent increase in either the time spent in the open arms or number of entries into the open arms. MEDs (minimal effective doses) were determined for each compound.

| Compound | minimal effective dose (Male Wistar rats) | dopamine release in the internal ear [1] | Effect (%) (Male Mongolian gerbils) | CA1 cell loss (score) (Male Mongolian gerbils) | melting point | IC50 (5-HT1A receptor) | IC50 (5-HT2C receptor) | IC50 (α1 receptor) | MED (Male Sprague-Dawley rats) |
| --- | --- | --- | --- | --- | --- | --- | --- | --- | --- |
| CCC1(CCCCN2CCN(c3ccc(Cl)cc3)CC2)C(=O)Nc2ccccc21 (stereo not drawn) [Example 76, 3-{4-[4-(4-Chlorophenyl)-piperazin-1-yl]-butyl}-3-ethyl-1,3-dihydro-2H-indol-2-one] | 10 mg/kg | the release stabilized at a significantly higher level | −52% | 2.40* score | 145 to 146 °C |  |  |  |  |
| CCC1(CCCCN2CCN(c3cccc(Cl)c3)CC2)C(=O)Nc2ccc(C)cc21 (stereo not drawn) [Example 78, 3-{4-[4-(3-Chlorophenyl)-piperazin-1-yl]-butyl}-3-ethyl-5-methyl-1,3-dihydro-2H-indol-2-one] |  |  |  |  | 142 to 144 °C | > 200 nM | < 100 nM | < 100 nM |  |
| CCC1(CCCCN2CCN(c3cccc(Cl)c3)CC2)C(=O)Nc2ccc(F)cc21 (stereo not drawn) [Example 85, 3-{4-[4-(3-Chlorophenyl)-piperazin-1-yl]-butyl}-3-ethyl-5-fluoro-1,3-dihydro-2H-indol-2-one mono-hydrochloride] | 5 mg/kg |  | −46% | 2.70* score |  |  |  |  | 0.1 mg/kg p.o. |
| CCC1(CCCCN2CCN(c3ccc(Cl)cc3)CC2)C(=O)Nc2c(Cl)cc(Cl)cc21 (stereo not drawn) [Example 87, 5,7-Dichloro-3-{4-[4-(4-chlorophenyl)-piperazin-1-yl]-butyl}-3-ethyl-1,3-dihydro-2H-indol-2-one] | 5 mg/kg |  |  |  | 152 to 154 °C | > 400 nM |  |  | 0.3 mg/kg p.o. |
| CCC1(CCCCN2CCN(c3ccc(F)cc3)CC2)C(=O)Nc2ccccc21 (stereo not drawn) [Example 95, 3-Ethyl-3-{4-[4-(4-fluorophenyl)-piperazin-1-yl]-butyl}-1,3-dihydro-2H-indol-2-one] | 10 mg/kg |  |  |  | 118 to 119 °C | > 300 nM |  |  | 0.1 mg/kg p.o. |
